The source of these data is US10968215B2 (SHANGHAI HAIHE PHARMACEUTICAL CO., LTD., priority 2016, dated 2021).

The term IC50 denotes the concentration at which inhibition is half-maximal.

In the first assay the target is PRC2 complex (EZH2 Y641F/EED/SUZ12/RbAp48/AEBP2) (Homo sapiens (Human), UniProt Q15910, Y641F). Nature of the assay: Activity of a compound to PRC2 complex (EZH2 Y641F), HTRF.
Chain of PRC2 complex (EZH2 Y641F/EED/SUZ12/RbAp48/AEBP2) (Q15910 whole entry Y641F): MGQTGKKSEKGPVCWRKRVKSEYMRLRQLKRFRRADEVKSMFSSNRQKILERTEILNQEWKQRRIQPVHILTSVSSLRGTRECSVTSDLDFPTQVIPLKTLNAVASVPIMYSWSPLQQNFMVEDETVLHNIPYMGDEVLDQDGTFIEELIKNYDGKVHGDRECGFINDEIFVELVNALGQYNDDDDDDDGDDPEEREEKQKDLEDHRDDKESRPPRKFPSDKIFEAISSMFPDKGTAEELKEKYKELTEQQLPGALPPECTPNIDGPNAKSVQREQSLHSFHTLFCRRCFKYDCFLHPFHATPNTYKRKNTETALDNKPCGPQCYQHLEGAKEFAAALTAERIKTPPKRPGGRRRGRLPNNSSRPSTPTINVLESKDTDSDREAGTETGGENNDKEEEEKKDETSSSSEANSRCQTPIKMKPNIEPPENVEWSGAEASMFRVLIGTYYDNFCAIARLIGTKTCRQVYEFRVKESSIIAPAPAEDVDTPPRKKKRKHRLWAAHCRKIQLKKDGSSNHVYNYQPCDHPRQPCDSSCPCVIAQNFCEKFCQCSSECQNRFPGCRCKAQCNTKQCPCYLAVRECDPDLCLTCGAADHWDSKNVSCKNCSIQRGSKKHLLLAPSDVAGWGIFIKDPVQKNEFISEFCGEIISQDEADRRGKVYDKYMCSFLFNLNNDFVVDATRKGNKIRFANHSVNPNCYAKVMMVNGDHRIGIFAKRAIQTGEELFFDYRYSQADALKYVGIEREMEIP
Chain of PRC2 complex (EZH2 Y641F/EED/SUZ12/RbAp48/AEBP2) (O75530 whole entry partner): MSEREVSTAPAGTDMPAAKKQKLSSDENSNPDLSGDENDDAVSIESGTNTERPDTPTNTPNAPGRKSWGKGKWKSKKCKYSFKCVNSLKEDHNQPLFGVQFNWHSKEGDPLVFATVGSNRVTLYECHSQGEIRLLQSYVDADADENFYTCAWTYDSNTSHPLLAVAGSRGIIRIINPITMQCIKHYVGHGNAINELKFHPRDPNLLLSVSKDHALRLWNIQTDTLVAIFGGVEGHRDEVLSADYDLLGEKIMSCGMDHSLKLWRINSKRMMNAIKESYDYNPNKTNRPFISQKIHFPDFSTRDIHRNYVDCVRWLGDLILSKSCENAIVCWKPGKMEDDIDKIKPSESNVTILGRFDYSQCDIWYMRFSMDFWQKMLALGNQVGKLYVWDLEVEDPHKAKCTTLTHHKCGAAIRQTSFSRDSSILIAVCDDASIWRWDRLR
Chain of PRC2 complex (EZH2 Y641F/EED/SUZ12/RbAp48/AEBP2) (Q15022 whole entry partner): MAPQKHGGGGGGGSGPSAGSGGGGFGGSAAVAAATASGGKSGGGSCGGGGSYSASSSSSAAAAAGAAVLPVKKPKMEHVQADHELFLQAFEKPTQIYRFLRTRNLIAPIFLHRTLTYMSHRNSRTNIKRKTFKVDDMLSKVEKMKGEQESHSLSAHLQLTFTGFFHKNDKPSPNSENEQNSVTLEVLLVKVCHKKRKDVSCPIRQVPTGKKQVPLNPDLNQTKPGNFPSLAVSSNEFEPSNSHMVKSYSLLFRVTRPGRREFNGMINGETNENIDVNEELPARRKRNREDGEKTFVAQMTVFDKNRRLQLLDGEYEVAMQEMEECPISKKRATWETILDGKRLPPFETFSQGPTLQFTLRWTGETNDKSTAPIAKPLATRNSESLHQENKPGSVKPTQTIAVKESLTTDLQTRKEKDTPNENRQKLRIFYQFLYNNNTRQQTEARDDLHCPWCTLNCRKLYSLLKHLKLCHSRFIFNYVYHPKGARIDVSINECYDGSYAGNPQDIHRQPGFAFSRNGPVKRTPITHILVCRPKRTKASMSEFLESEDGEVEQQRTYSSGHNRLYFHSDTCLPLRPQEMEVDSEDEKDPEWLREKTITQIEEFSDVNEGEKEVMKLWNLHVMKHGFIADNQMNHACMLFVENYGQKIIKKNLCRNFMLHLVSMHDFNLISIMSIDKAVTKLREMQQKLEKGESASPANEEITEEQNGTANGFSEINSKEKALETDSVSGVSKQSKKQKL
Chain of PRC2 complex (EZH2 Y641F/EED/SUZ12/RbAp48/AEBP2) (Q09028 whole entry partner): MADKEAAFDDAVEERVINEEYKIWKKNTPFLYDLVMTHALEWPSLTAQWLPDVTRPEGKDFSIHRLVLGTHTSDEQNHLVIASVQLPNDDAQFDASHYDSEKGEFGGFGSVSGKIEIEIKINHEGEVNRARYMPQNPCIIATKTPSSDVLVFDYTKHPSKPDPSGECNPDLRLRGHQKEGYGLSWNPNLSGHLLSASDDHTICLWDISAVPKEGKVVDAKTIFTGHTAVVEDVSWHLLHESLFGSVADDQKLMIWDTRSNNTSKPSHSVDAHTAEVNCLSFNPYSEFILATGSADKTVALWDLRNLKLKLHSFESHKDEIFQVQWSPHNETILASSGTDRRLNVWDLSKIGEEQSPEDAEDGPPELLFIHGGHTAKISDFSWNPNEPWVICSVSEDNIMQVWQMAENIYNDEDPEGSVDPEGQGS
Chain of PRC2 complex (EZH2 Y641F/EED/SUZ12/RbAp48/AEBP2) (Q6ZN18 whole entry partner): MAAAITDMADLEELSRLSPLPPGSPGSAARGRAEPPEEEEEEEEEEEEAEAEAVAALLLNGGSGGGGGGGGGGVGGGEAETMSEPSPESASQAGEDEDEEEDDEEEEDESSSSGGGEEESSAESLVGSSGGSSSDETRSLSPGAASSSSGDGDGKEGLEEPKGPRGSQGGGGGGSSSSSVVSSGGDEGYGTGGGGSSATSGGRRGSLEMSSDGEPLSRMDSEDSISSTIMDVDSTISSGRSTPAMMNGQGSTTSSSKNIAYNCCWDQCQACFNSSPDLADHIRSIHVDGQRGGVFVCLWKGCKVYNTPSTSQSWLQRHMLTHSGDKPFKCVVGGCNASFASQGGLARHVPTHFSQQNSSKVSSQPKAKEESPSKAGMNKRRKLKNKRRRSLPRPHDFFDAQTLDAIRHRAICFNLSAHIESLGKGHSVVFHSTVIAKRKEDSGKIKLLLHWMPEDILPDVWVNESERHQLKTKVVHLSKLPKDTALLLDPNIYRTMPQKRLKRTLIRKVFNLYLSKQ
Details: not given
The molecule `CCN(c1c(C)c(C(=O)NCc2c(C)cc(C)[nH]c2=O)cc2cc(-c3cn(C)cn3)cn12)C1CCOCC1` [Example 73, N-((4,6-dimethyl-2-oxo-1,2-dihydropyridin-3-yl)methyl)-5-(ethyl(tetrahydro-2H-pyran-4-yl)amino)-6-methyl-2-(1-methyl-1H-imidazol-4-yl)indolizin-7-carboxamide] yielded an IC50 of less than 0.1 µM. Still for that read-out and setting: then `Cc1cc(C)c(CNC(=O)c2cc3cc(-c4nccn4C)cn3c(C(C)N3CCOCC3)c2C)c(=O)[nH]1` (centres unmarked) [Example 79, N-((4,6-dimethyl-2-oxo-1,2-dihydropyridin-3-yl)methyl)-6-methyl-2-(1-methyl-1H-imidazole-2-yl)-5-(1-morpholinoethyl)indolizine-7-carboxamide], with less than 0.1 µM; and `Cc1cc(C)c(CNC(=O)c2cc3cc(-c4ccncc4)cn3c(C(C)N3CCC(N(C)C)CC3)c2C)c(=O)[nH]1` (centres unmarked) [Example 93, N-((4,6-dimethyl-2-oxo-1,2-dihydropyridin-3-yl)methyl)-5-(1-(4-(dimethylamino)piperidine-1-yl)ethyl)-6-methyl-2-(pyridin-4-yl)indolizine-7-carboxamide], with less than 0.1 µM.

On to `COc1ccc(-c2cc3cc(C(=O)NCc4c(C)cc(C)[nH]c4=O)c(C)c(C(C)N4CCOCC4)n3c2)cc1` (centres unmarked) [Example 97, N-((4,6-dimethyl-2-oxo-1,2-dihydropyridin-3-yl)methyl)-2-(4-methoxyphenyl)-6-methyl-5-(1-morpholinoethyl)indolizine-7-carboxamide], for which the IC50 fell in the range of 0.1 to 1 µM. Still for that read-out and setting: then `Cc1cc(C)c(CNC(=O)c2cc3cc(Br)cn3c(C(C)N3CCNCC3)c2C)c(=O)[nH]1` (centres unmarked) [Example 100], with 0.1 to 1 µM; and `Cc1cc(C)c(CNC(=O)c2cc3cc(Br)cn3c(C(C)N3CCN(S(C)(=O)=O)CC3)c2C)c(=O)[nH]1` (centres unmarked) [Example 103, 2-bromo-N-((4,6-dimethyl-2-oxo-1,2-dihydropyridin-3-yl)methyl)-6-methyl-5-(1-(4-(methylsulfonyl)piperazin-1-yl)ethyl)indolizine-7-carboxamide], with 0.1 to 1 µM; and `Cc1cc(C)c(CNC(=O)c2cc3cc(-c4ccnn4C)cn3c(C(C)N3CCC(N(C)C)CC3)c2C)c(=O)[nH]1` (centres unmarked) [Example 106, N-((4,6-dimethyl-2-oxo-1,2-dihydropyridin-3-yl)methyl)-5-(1-(4-(dimethylamino)piperidine-1-yl)ethyl)-6-methyl-2-(1-methyl-1H-pyrazol-5-yl)indolizine-7-carboxamide], with less than 0.1 µM.

The same assay, now with this note: read-out: IC50 (EZH2_Y641F); EZH2 Y641F PRC2 complex, HTRF; class symbols.
Consider `Cc1cc(C)c(CNC(=O)c2cc3cc(Cl)cn3c(C(C)N3CCC(N(C)C)CC3)c2C)c(=O)[nH]1` (centres unmarked) [Example 70], for which the IC50 was less than 0.1 µM. On to `Cc1cc(C)c(CNC(=O)c2cc3cncn3c(C(C)N3CCOCC3)c2C)c(=O)[nH]1` (centres unmarked) [Example 71, N-((4,6-dimethyl-2-oxo-1,2-dihydropyridin-3-yl)methyl)-6-methyl-5-(1-morphinolinylethyl)imidazo[1,5-a]pyridine-7-carboxamide], for which the IC50 was less than 0.1 µM. Turning to `Cc1cc(C)c(CNC(=O)c2cc3cc(-c4ccn(C)n4)cn3c(C(C)N3CCC(N(C)C)CC3)c2C)c(=O)[nH]1` (centres unmarked) [Example 76], the IC50 is 0.1 to 1 µM. Consider `Cc1cc(C)c(CNC(=O)c2cc3cc(-c4ccn(C)n4)cn3c(C(C)N3CCC(N(C)C)CC3)c2C)c(=O)[nH]1` (centres unmarked) [Example 77, N-((4,6-dimethyl-2-oxo-1,2-dihydropyridin-3-yl)methyl)-5-(1-(4-(dimethylamino)piperidine-1-yl)ethyl)-6-methyl-2-(1-methyl-1H-pyrazol-3-yl)indolizin-7-carboxamide], for which the IC50 was less than 0.1 µM.

As to `Cc1cc(C)c(CNC(=O)c2cc3cc(-c4cccc(CN5CCOCC5)c4)cn3c(C(C)N3CCOCC3)c2C)c(=O)[nH]1` (centres unmarked) [Example 80, N-((4,6-dimethyl-2-oxo-1,2-dihydropyridin-3-yl)methyl)-5-(1-morpholine-1-ethyl)-6-methyl-2-(3-(morpholinemethylene)phenyl)indolizin-7-amide], the IC50 is 0.1 to 1 µM.

Take `Cc1cc(C)c(CNC(=O)c2cc3c(-c4ccccc4)ccn3c(C(C)N3CCOCC3)c2C)c(=O)[nH]1` (centres unmarked) [Example 81]: the IC50 is less than 0.1 µM. On the same count and under the same terms, for `Cc1cc(C)c(CNC(=O)c2cc3c(-c4ccccc4)ccn3c(C(C)N3CCOCC3)c2C)c(=O)[nH]1` (centres unmarked) [Example 82, N-((4,6-dimethyl-2-oxo-1,2-dihydropyridin-3-yl)methyl)-6-methyl-5-(1-morphinolinylethyl)-1-phenylindolizine-7-carboxamide] the value was less than 0.1 µM; for `COc1cc(C)[nH]c(=O)c1CNC(=O)c1cc2cc(-c3ccnn3C)cn2c(C(C)N2CCN(CC(F)(F)F)CC2)c1C` (centres unmarked) [Example 83, N-((4-methoxy-6-methyl-2-oxo-1,2-dihydropyridin-3-yl)methyl)-6-methyl-2-(1-methyl-1H-pyrazol-5-yl)-5-(1-(4-(2,2,2-trifluoroethyl)piperazin-1-yl)ethyl)indolizine-7-carboxamide], less than 0.1 µM. Still for that read-out and setting: then `Cc1cc(C)c(CNC(=O)c2cc3cc(-c4ccnn4C)cn3c(C(C)N3CCN(CC(F)(F)F)CC3)c2C)c(=O)[nH]1` (centres unmarked) [Example 84, N-((4,6-dimethyl-2-oxo-1,2-dihydropyridin-3-yl)methyl)-6-methyl-2-(1-methyl-1H-pyrazole-5-yl)-5-(1-(4-(2,2,2-trifluoroethyl)piperazin-1-yl)ethyl)indolizine-7-carboxamide], with 0.1 to 1 µM; and `Cc1cc(C)c(CNC(=O)c2cc3cc(-c4ccn(C)n4)cn3c(C(C)N3CCOCC3)c2C)c(=O)[nH]1` (centres unmarked) [Example 85, N-((4,6-dimethyl-2-oxo-1,2-dihydropyridin-3-yl)methyl)-6-methyl-2-(1-methyl-1H-pyrazole-3-yl)-5-(1-morpholinoethyl)indolizine-7-carboxamide], with 0.1 to 1 µM; and `Cc1cc(C)c(CNC(=O)c2cc3cc(-c4cncn4C)cn3c(C(C)N3CCOCC3)c2C)c(=O)[nH]1` (centres unmarked) [Example 86, N-((4,6-dimethyl-2-oxo-1,2-dihydropyridin-3-yl)methyl)-6-methyl-2-(1-methyl-1H-imidazole-5-yl)-5-(1-morpholinoethyl)indolizine-7-carboxamide], with less than 0.1 µM. With `Cc1cc(C)c(CNC(=O)c2cc3cc(-c4ccc(N)nc4)cn3c(C(C)N3CCOCC3)c2C)c(=O)[nH]1` (centres unmarked) [Example 89, 2-(6-aminopyridin-3-yl)-N-((4,6-dimethyl-2-oxo-1,2-dihydropyridin-3-yl)methyl)-6-methyl-5-(1-morpholinylethyl)indolizine-7-amide], the half-maximal inhibitory concentration (IC50) was less than 0.1 µM.

Consider `Cc1cc(C)c(CNC(=O)c2cc3cc(-c4ccc(N5CCNCC5)nc4)cn3c(C(C)N3CCOCC3)c2C)c(=O)[nH]1` (centres unmarked) [Example 90, N-((4,6-dimethyl-2-oxo-1,2-dihydropyridin-3-yl)methyl)-6-methyl-5-(1-morpholinoethyl)-2-(6-(piperazin-1-yl)pyridin-3-yl)indolizine-7-carboxamide], for which the IC50 was 1 to 10 µM. Same read-out and setting: then `Cc1cc(C)c(CNC(=O)c2cc3cc(-c4ccc(N5CCN(C)CC5)nc4)cn3c(C(C)N3CCOCC3)c2C)c(=O)[nH]1` (centres unmarked) [Example 91], with less than 0.1 µM; and `COc1cc(-c2cc3cc(C(=O)NCc4c(C)cc(C)[nH]c4=O)c(C)c(C(C)N4CCC(N(C)C)CC4)n3c2)cc(OC)c1OC` (centres unmarked) [Example 92, N-((4,6-dimethyl-2-oxo-1,2-dihydropyridin-3-yl)methyl)-5-(1-(4-(dimethylamino)piperidine-1-yl)ethyl)-6-methyl-2-(3,4,5-trimethoxyphenyl)-indolizine-7-carboxamide], with less than 0.1 µM; and `COc1cccc(-c2cc3cc(C(=O)NCc4c(C)cc(C)[nH]c4=O)c(C)c(C(C)N4CCOCC4)n3c2)c1` (centres unmarked) [Example 95], with less than 0.1 µM. Consider `COc1cccc(-c2cc3cc(C(=O)NCc4c(C)cc(C)[nH]c4=O)c(C)c(C(C)N4CCOCC4)n3c2)c1` (centres unmarked) [Example 96, N-((4,6-dimethyl-2-oxo-1,2-dihydropyridin-3-yl)methyl)-2-(3-methoxyphenyl)-6-methyl-5-(1-morpholinylethyl)indolizine-7-carboxamide], for which the IC50 is less than 0.1 µM. The same measure, in the same setting: then `CCN1CCN(C(C)c2c(C)c(C(=O)NCc3c(C)cc(C)[nH]c3=O)cc3cc(Br)cn23)CC1` (centres unmarked) [Example 98, N-((4,6-dimethyl-2-oxo-1,2-dihydropyridin-3-yl)methyl)-6-methyl-5-(1-(4-methylpiperazine)-1-ethyl)-2-bromoindolizine-7-carboxamide], with 0.1 to 1 µM; and `CCN1CCN(C(C)c2c(C)c(C(=O)NCc3c(C)cc(C)[nH]c3=O)cc3cc(Br)cn23)CC1` (centres unmarked) [Example 99, N-((4,6-dimethyl-2-oxo-1,2-dihydropyridin-3-yl)methyl)-6-methyl-5-(1-(4-ethylpiperazine)-1-ethyl)-2-bromoindolizine-7-carboxamide], with 0.1 to 1 µM. Take `Cc1cc(C)c(CNC(=O)c2cc3cc(Br)cn3c(C(C)N3CCN(C(=O)CO)CC3)c2C)c(=O)[nH]1` (centres unmarked) [Example 101]: the IC50 is 0.1 to 1 µM.

Regarding `Cc1cc(C)c(CNC(=O)c2cc3cc(Br)cn3c(C(C)N3CCN(C(=O)CO)CC3)c2C)c(=O)[nH]1` (centres unmarked) [Example 102], the IC50 fell in the range of 1 to 10 µM. As for `Cc1cc(C)c(CNC(=O)c2cc3cc(Br)cn3c(C(C)N3CCN(CCC(F)(F)F)CC3)c2C)c(=O)[nH]1` (centres unmarked) [Example 104], the IC50 lay within 0.1 to 1 µM. On the same count and under the same terms, for `Cc1cc(C)c(CNC(=O)c2cc3cc(Br)cn3c(C(C)N3CCN(CCC(F)(F)F)CC3)c2C)c(=O)[nH]1` (centres unmarked) [Example 105, 2-bromo-N-((4,6-dimethyl-2-oxo-1,2-dihydropyridin-3-yl)methyl)-6-methyl-5-(1-(4-(3,3,3-trifluoropropyl)piperazin-1-yl)ethyl)indolizine-7-carboxamide] the value was 1 to 10 µM; for `COc1cc(C)[nH]c(=O)c1CNC(=O)c1cc2cc(-c3nccn3C)cn2c(C(C)N2CCC(N(C)C)CC2)c1C` (centres unmarked) [Example 107], less than 0.1 µM; for `COc1cc(C)[nH]c(=O)c1CNC(=O)c1cc2cc(-c3nccn3C)cn2c(C(C)N2CCC(N(C)C)CC2)c1C` (centres unmarked) [Example 108], less than 0.1 µM.
